Assay results as given in patent US20130158127A1, “TEA TREE OIL DERIVATIVES” (priority 2011, published 2013).

System: Vero cells
Experiment: Vero cell cytotoxicy assays (light microscopy of monolayers)

## polysorbate 60 [PS-60]
A small proportion of cells appeared to remain healthy
  sub-toxic dose: 0.125%
No changes compared to the untreated control
  non-toxic dose: 0.06%
